In ChEMBL document CHEMBL4130348, “Structure-activity relationship investigation for benzonaphthyridinone derivatives as novel potent Bruton's tyrosine kinase (BTK) irreversible inhibitors” (Eur J Med Chem, 2017):
The source made the active and inactive calls. The rule behind the calls is not given here.

Assays:
[1] = target: T1, Tyrosine-protein kinase BTK (Homo sapiens, UniProt Q06187); test: Inhibition of recombinant full length His-tagged human BTK expressed in baculovirus expression system using poly (4:1 Glu, Tyr) as substrate preincubated for 1 hr followed by substrate addition measured after 1 hr by ADP-glo assay
T1 sequence (Q06187 whole entry, the tested form may be a part): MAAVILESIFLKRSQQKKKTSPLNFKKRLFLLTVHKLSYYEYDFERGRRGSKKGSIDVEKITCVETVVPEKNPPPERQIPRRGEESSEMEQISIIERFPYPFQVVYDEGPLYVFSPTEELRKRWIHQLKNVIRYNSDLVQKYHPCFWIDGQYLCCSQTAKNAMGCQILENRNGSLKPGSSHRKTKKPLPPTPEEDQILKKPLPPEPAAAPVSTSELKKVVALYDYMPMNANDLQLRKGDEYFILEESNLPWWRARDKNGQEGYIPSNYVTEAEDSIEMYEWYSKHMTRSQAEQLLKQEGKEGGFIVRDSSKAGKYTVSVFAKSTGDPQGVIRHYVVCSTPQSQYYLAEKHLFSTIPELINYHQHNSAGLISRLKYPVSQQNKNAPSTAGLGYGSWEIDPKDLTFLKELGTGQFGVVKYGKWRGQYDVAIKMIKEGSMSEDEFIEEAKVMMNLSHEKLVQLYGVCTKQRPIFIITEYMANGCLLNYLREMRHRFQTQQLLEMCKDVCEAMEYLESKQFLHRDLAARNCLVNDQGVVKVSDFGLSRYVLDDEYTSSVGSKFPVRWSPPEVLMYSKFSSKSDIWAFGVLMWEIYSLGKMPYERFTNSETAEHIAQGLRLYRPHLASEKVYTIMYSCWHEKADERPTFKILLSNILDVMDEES

[2] = target: Tyrosine-protein kinase JAK2 (Homo sapiens) (UniProt O60674); test: Inhibition of TEL-fused JAK2 (unknown origin) expressed in mouse BA/F3 cells after 72 hrs by CellTiter-Glo assay; assay type: cell-based
Tyrosine-protein kinase JAK2 (Homo sapiens), sequence (O60674 whole entry, the tested form may be a part): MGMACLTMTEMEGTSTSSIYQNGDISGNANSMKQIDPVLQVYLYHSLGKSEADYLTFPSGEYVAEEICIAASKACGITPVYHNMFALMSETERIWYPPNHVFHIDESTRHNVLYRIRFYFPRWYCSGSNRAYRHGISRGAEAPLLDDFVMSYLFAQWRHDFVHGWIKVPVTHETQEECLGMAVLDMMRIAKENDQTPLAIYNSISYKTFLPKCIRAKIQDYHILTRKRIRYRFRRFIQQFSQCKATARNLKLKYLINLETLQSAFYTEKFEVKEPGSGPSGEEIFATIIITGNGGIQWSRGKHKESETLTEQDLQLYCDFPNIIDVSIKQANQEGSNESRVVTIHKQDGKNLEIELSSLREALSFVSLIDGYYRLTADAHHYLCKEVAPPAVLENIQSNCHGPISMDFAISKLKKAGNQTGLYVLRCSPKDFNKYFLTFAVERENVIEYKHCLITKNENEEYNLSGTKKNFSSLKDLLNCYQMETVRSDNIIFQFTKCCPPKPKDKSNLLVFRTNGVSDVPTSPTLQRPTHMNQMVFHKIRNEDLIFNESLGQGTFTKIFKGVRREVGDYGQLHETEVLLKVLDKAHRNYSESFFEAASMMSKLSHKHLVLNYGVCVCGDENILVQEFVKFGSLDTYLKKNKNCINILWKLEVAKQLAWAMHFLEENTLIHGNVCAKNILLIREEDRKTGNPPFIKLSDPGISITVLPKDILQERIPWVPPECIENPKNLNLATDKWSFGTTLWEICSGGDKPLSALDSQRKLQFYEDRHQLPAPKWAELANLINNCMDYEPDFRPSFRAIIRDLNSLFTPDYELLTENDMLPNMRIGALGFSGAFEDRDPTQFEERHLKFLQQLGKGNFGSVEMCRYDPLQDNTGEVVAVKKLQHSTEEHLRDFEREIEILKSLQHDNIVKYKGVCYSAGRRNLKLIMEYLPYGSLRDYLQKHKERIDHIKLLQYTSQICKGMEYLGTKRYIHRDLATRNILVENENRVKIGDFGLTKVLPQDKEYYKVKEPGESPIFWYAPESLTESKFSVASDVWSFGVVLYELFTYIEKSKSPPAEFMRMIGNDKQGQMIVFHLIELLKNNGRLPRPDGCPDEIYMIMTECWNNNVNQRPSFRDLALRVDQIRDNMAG

A549 = test: Antiproliferative activity against human A549 cells after 72 hrs by CellTiter-Glo assay; assay type: functional; conditions: A549, 72 h
NCI-H358 = test: Antiproliferative activity against human NCI-H358 cells after 72 hrs by CellTiter-Glo assay; assay type: functional; conditions: NCI-H358, 72 h
HeLa = test: Antiproliferative activity against human HeLa cells after 72 hrs by CellTiter-Glo assay; assay type: functional
LNCaP C4-2 = test: Antiproliferative activity against human C4-2 cells after 72 hrs by CellTiter-Glo assay; assay type: functional; conditions: LNCaP C4-2, 72 h
Pfeiffer [3] = test: Antiproliferative activity against human Pfeiffer cells after 72 hrs by CellTiter-Glo assay; assay type: functional
U-937 = test: Antiproliferative activity against human U937 cells after 72 hrs by CellTiter-Glo assay; assay type: functional; conditions: U-937, 72 h
MOLM-13 [4] = test: Antiproliferative activity against human MOLM13 cells after 72 hrs by CellTiter-Glo assay; assay type: functional; conditions: MOLM-13, 72 h
OCI-AML-3 = test: Antiproliferative activity against human OCI-AML3 cells after 72 hrs by CellTiter-Glo assay; assay type: functional; conditions: OCI-AML-3, 72 h
OCI-AML2 = test: Antiproliferative activity against human OCI-AML2 cells after 72 hrs by CellTiter-Glo assay; assay type: functional; conditions: OCI-AML2, 72 h
JVM-2 = test: Antiproliferative activity against human JVM2 cells after 72 hrs by CellTiter-Glo assay; assay type: functional; conditions: JVM-2, 72 h
Z-138 = test: Antiproliferative activity against human Z138 cells after 72 hrs by CellTiter-Glo assay; assay type: functional; conditions: Z-138, 72 h
cells = assay type: functional; conditions: Homo sapiens, CLL cell, 72 h
[5] = target: Cytoplasmic tyrosine-protein kinase BMX (Homo sapiens) (UniProt P51813)
Cytoplasmic tyrosine-protein kinase BMX (Homo sapiens), sequence (P51813 whole entry, the tested form may be a part): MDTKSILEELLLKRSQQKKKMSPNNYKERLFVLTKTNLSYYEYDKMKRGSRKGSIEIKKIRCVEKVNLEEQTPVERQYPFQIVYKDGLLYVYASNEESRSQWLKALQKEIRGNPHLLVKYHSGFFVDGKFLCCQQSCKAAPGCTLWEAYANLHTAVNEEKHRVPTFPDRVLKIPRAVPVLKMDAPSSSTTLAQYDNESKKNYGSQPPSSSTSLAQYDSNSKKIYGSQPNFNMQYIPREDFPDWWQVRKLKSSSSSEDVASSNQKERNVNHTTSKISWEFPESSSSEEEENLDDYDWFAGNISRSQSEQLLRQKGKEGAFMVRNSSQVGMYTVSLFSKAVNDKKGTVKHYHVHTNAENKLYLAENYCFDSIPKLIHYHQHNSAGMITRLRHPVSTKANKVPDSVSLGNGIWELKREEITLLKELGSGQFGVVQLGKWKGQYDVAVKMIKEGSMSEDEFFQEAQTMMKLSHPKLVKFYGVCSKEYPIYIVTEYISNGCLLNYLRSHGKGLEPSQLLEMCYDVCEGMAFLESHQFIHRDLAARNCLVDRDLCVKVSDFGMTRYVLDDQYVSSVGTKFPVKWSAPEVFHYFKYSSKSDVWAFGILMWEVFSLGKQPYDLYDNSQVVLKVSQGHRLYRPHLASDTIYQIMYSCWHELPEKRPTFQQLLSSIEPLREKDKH
Description: Inhibition of TEL-fused BMX (unknown origin) expressed in mouse BA/F3 cells after 72 hrs by CellTiter-Glo assay

[6] = tested on: Tyrosine-protein kinase JAK3; test: Inhibition of TEL-fused JAK3 (unknown origin) expressed in mouse BA/F3 cells after 72 hrs by CellTiter-Glo assay; conditions: Homo sapiens
[7] = target: Cytoplasmic tyrosine-protein kinase BMX (Homo sapiens, UniProt P51813); test: Inhibition of recombinant full length His-tagged human BMX expressed in baculovirus expression system using poly (4:1 Glu, Tyr) as substrate preincubated for 1 hr followed by substrate addition measured after 1 hr by ADP-glo assay
Cytoplasmic tyrosine-protein kinase BMX, sequence (P51813 whole entry): as the sequence (P51813 whole entry, the tested form may be a part) above

[8] = target: Tyrosine-protein kinase Blk (Homo sapiens, UniProt P51451); test: Inhibition of recombinant full length His-tagged human BLK expressed in baculovirus expression system using poly (4:1 Glu, Tyr) as substrate preincubated for 1 hr followed by substrate addition measured after 1 hr by ADP-glo assay
Tyrosine-protein kinase Blk, sequence (P51451 whole entry, the tested form may be a part): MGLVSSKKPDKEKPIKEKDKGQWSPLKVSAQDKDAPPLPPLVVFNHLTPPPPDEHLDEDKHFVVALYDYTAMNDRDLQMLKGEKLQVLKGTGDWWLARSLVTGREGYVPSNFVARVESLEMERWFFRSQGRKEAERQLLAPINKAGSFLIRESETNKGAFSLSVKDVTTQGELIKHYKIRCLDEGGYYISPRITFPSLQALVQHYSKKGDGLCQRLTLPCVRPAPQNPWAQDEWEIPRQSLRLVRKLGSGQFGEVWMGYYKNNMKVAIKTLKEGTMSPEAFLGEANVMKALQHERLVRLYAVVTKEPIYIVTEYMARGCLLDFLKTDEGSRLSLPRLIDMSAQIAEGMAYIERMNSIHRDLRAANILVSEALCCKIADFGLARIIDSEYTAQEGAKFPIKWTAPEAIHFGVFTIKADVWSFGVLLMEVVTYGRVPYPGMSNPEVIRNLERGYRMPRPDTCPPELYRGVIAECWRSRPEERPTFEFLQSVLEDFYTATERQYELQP

[9] = target: T1, Tyrosine-protein kinase BTK; test: Irreversible binding affinity to recombinant full length His-tagged human BTK expressed in baculovirus expression system assessed as modification of Cys481 residue containing fragment at 100 uM after 1 hr by LC/MS-MS method
[10] = target: T1, Tyrosine-protein kinase BTK; test: Irreversible inhibition of recombinant full length His-tagged human BTK expressed in baculovirus expression system using poly (4:1 Glu, Tyr) as substrate preincubated for 2 to 60 mins followed by substrate addition measured after 1 hr by ADP-glo assay
[11] = target: T1, Tyrosine-protein kinase BTK; test: Irreversible inhibition of recombinant full length His-tagged human BTK expressed in baculovirus expression system using poly (4:1 Glu, Tyr) as substrate assessed as ratio of Kinact to Ki preincubated for 2 to 60 mins followed by substrate addition measured after 1 hr by ADP-glo assay
[12] = target: T1, Tyrosine-protein kinase BTK; test: Inhibition of BTK autophosphorylation at Y223 in anti-IgM stimulated human MOLM13 cells after 4 hrs by chemiluminescence assay
[13] = target: T1, Tyrosine-protein kinase BTK; test: Inhibition of BTK autophosphorylation at Y223 in anti-IgM stimulated human Ramos cells after 4 hrs by chemiluminescence assay; assay type: cell-based
[14] = target: T1, Tyrosine-protein kinase BTK; test: Inhibition of BTK autophosphorylation at Y223 in anti-IgM stimulated human Pfeiffer cells after 4 hrs by chemiluminescence assay; assay type: cell-based
[15] = target: T1, Tyrosine-protein kinase BTK; test: Inhibition of BTK transphosphorylation at Y551 in anti-IgM stimulated human MOLM13 cells at 100 to 1000 nM after 4 hrs by chemiluminescence assay
[16] = target: T1, Tyrosine-protein kinase BTK; test: Inhibition of BTK transphosphorylation at Y551 in anti-IgM stimulated human Ramos cells at 100 to 1000 nM after 4 hrs by chemiluminescence assay; assay type: cell-based
[17] = target: T1, Tyrosine-protein kinase BTK; test: Inhibition of BTK transphosphorylation at Y551 in anti-IgM stimulated human Pfeiffer cells at 100 to 1000 nM after 4 hrs by chemiluminescence assay; assay type: cell-based
[18] = target: T1, Tyrosine-protein kinase BTK; test: Inhibition of BTK in anti-IgM stimulated human Ramos cells assessed as decrease in PLCgamma2 phosphorylation at Y1217 after 4 hrs by chemiluminescence assay; assay type: cell-based
[19] = target: T1, Tyrosine-protein kinase BTK; test: Inhibition of BTK in anti-IgM stimulated human Pfeiffer cells assessed as decrease in PLCgamma2 phosphorylation at Y1217 at 100 to 1000 nM after 4 hrs by chemiluminescence assay; assay type: cell-based
[20] = target: T1, Tyrosine-protein kinase BTK; test: Inhibition of BTK in anti-IgM stimulated human MOLM13 cells assessed as decrease in PLCgamma2 phosphorylation at Y1217 at 100 to 1000 nM after 4 hrs by chemiluminescence assay
Ramos [21] = test: Cell cycle arrest in human Ramos cells assessed as accumulation at G0/G1 phase up to 10 uM after 48 hrs by propidium iodide staining-based flow cytometric method; assay type: functional
MOLM-13 [22] = test: Cell cycle arrest in human MOLM13 cells assessed as accumulation at G0/G1 phase up to 10 uM after 48 hrs by propidium iodide staining-based flow cytometric method; assay type: functional
Ramos [23] = test: Induction of apoptosis in human Ramos cells assessed as PARP cleavage up to 10 uM after 48 hrs by immunoblot method; assay type: functional, cell-based
Ramos [24] = test: Induction of apoptosis in human Ramos cells assessed as caspase-3 cleavage up to 10 uM after 48 hrs by immunoblot method; assay type: functional, cell-based
MOLM-13 [25] = test: Induction of apoptosis in human MOLM13 cells assessed as PARP cleavage up to 10 uM after 48 hrs by immunoblot method; assay type: functional, cell-based
MOLM-13 [26] = test: Induction of apoptosis in human MOLM13 cells assessed as caspase-3 cleavage up to 10 uM after 48 hrs by immunoblot method; assay type: functional, cell-based
Pfeiffer [27] = test: Induction of apoptosis in human Pfeiffer cells assessed as PARP cleavage up to 10 uM after 48 hrs by immunoblot method; assay type: functional, cell-based
Pfeiffer [28] = test: Induction of apoptosis in human Pfeiffer cells assessed as caspase-3 cleavage up to 10 uM after 48 hrs by immunoblot method; assay type: functional, cell-based

Q: Which IC50 [1] does the source give for `CCC(=O)Nc1cc(-n2c(=O)ccc3cnc4ccc(-n5cccn5)cc4c32)ccc1C` here?
A: 6.87 µM

Q: And the GI50 [2]?
A: > 10 µM

Q: And the GI50 (A549)?
A: > 10 µM

Q: What about the GI50 (NCI-H358) of the same compound?
A: > 10 µM

Q: What about the GI50 (HeLa) of the same compound?
A: > 10 µM

Q: And the GI50 (LNCaP C4-2)?
A: > 10 µM

Q: What about the GI50 (Pfeiffer [3]) of the same compound?
A: > 10 µM

Q: And the GI50 (U-937)?
A: > 10 µM

Q: And the GI50 (MOLM-13 [4])?
A: > 10 µM

Q: And the GI50 (OCI-AML-3)?
A: > 10 µM

Q: What about the GI50 (OCI-AML2) of the same compound?
A: > 10 µM

Q: What about the GI50 (JVM-2) of the same compound?
A: > 10 µM

Q: What about the GI50 (Z-138) of the same compound?
A: > 10 µM

Q: And the GI50 (cells)?
A: > 10 µM

Q: What about the GI50 [5] of the same compound?
A: > 10 µM

Q: What about the GI50 [6] of the same compound?
A: > 10 µM

Q: Which IC50 [7] does the source give for `C=CC(=O)Nc1cc(-n2c(=O)ccc3cnc4ccc(-n5cccn5)cc4c32)ccc1C` here?
A: 0.083 µM

Q: And the IC50 [8]?
A: > 10 µM

Q: And the Activity [9]?
A: Active

Q: And the Ki [10]?
A: 0.097 µM

Q: And the Kinact [10]?
A: 0.07 min⁻¹

Q: What about the Ratio [11] of the same compound?
A: 0.01 µM⁻¹ s⁻¹

Q: What about the GI50 [2] of the same compound?
A: 2.1 µM

Q: What about the GI50 (A549) of the same compound?
A: 3.7 µM

Q: What about the GI50 (NCI-H358) of the same compound?
A: > 10 µM

Q: And the GI50 (HeLa)?
A: > 10 µM

Q: And the GI50 (LNCaP C4-2)?
A: > 10 µM

Q: And the GI50 (Pfeiffer [3])?
A: 5.8 µM

Q: And the GI50 (U-937)?
A: > 10 µM

Q: What about the GI50 (MOLM-13 [4]) of the same compound?
A: 0.59 µM

Q: What about the GI50 (OCI-AML-3) of the same compound?
A: 5.6 µM

Q: And the GI50 (OCI-AML2)?
A: 7.8 µM

Q: What about the GI50 (JVM-2) of the same compound?
A: 3.4 µM

Q: And the GI50 (Z-138)?
A: 8.5 µM

Q: And the GI50 (cells)?
A: 3.7 µM

Q: And the EC50 [12]?
A: < 0.1 µM

Q: What about the EC50 [13] of the same compound?
A: < 0.1 µM

Q: And the EC50 [14]?
A: < 3 µM

Q: And the inhibition [15]?
A: inactive

Q: And the inhibition [16]?
A: inactive

Q: And the inhibition [17]?
A: inactive

Q: What about the EC50 [18] of the same compound?
A: < 1 µM

Q: And the inhibition [19]?
A: inactive

Q: And the inhibition [20]?
A: inactive

Q: And the Activity (Ramos [21])?
A: Active

Q: What about the Activity (MOLM-13 [22]) of the same compound?
A: Active

Q: And the Activity (Ramos [23])?
A: Active

Q: What about the Activity (Ramos [24]) of the same compound?
A: Active

Q: And the Activity (MOLM-13 [25])?
A: Active

Q: And the Activity (MOLM-13 [26])?
A: Active

Q: And the Activity (Pfeiffer [27])?
A: Active

Q: What about the Activity (Pfeiffer [28]) of the same compound?
A: Active

Q: What about the GI50 [5] of the same compound?
A: 0.018 µM

Q: What about the GI50 [6] of the same compound?
A: 9.67 µM
